From ChEMBL document CHEMBL1201862, “PubChem BioAssay data set” (2004)
Activity calls are given as the source filed them.

Experiments:
[1] = molecular target: T1, Nuclear receptor subfamily 0 group B member 1 (Homo sapiens, UniProt P51843); assay type: functional, cell-based;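 note: HEK293T cells transfected with SF-1 and DAX-1 plus StAR promoter luciferase reporter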
T1 sequence (P51843 whole entry): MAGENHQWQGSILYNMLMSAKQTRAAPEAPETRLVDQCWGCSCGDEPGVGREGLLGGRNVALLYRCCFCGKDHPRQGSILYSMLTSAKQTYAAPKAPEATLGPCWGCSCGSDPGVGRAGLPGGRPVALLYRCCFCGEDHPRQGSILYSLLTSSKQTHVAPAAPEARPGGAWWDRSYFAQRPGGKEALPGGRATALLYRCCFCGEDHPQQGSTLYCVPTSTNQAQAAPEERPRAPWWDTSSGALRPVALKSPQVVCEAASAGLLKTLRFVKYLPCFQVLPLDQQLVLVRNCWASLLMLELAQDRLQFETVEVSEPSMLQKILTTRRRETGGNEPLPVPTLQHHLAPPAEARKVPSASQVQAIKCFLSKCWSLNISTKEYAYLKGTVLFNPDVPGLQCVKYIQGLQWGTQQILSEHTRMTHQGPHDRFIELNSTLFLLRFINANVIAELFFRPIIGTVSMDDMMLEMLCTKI

[2] = Luminescence-based dose response cell-based high throughput screening assay for cytotoxic compounds using the IEC-6 intestinal epithelial cell line. [Related pubchem assays: 1858 (Summary AID.), 1825 (Counterscreen.), 1907 (Confirmation screen.)]; assay type: functional
Wee1-like protein kinase = Wee1-like protein kinase (Homo sapiens, UniProt P30291); experiment: Dose Response Cell-based Assay for Inhibitors of Wee1 Degradation. [Related pubchem assays: 1410, 1321 ]; assay type: functional
[3] = molecular target: Kappa-type opioid receptor (Homo sapiens, UniProt P41145); assay type: functional
Mu-type opioid receptor = Mu-type opioid receptor (Homo sapiens, UniProt P35372); experiment: HTS Image-Based Screen for Agonists of the MOR Receptor. [Related pubchem assays (depositor defined):AID1777, AID1785, AID1786, AID2133]; assay type: functional;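 note: imaging of beta-arrestin GFP recruitment into spots after receptor activation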
[4] = molecular target: Delta-type opioid receptor (Homo sapiens, UniProt P41143); experiment: HTS Image-Based Screen for Agonists of the DOR Receptor. [Related pubchem assays (depositor defined):AID1777, AID1786, AID2133]; assay type: functional
[5] = IC50 of Artemis nuclease activity blockers – biochemical, fluorescence intensity, dose response (AID 720701); assay type: functional;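 note: Artemis endonuclease enzyme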
[6] = molecular target: Peroxisome proliferator-activated receptor gamma/Nuclear receptor coactivator 1 (Homo sapiens, UniProt P37231); assay type: functional;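 note: agonist potency as compounds enhance coactivator SRC-1 recruitment to PPARgamma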
[7] = molecular target: Glucose-6-phosphate 1-dehydrogenase (Homo sapiens, UniProt P11413); experiment: inhibition of Homo sapiens G6PD, dose series – biochemical, fluorescence, selectivity assay for P. falciparum G6PD inhibitor project, dose response (AID 504792); assay type: functional
[8] = molecular target: Eukaryotic translation initiation factor 4E (Mus musculus, UniProt P63073); experiment: blockers of eIF4G binding by eIF4E – biochemical, TR-FRET, dose response (AID 855); assay type: functional;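 note: potency for disrupting eIF4E binding to eIF4GI seen as loss of FRET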
[9] = viability loss in HeLa cells – cytotoxicity control for MgcRacGAP inhibitor project, dose response (AID 624300); assay type: functional
H4 = experiment: Luminescence Cell-Based Dose Response HTS to Identify Activators of 5'UTR Stem-Loop Driven Prion Protein mRNA Translation in H4 Neuroglioblastoma Cells. [Related pubchem assays: 1829 (Project Summary), 1814 (Primary HTS)]; assay type: functional; details: Homo sapiens
[10] = molecular target: Serine/threonine-protein kinase pim-2 (Homo sapiens, UniProt Q9P1W9); assay type: functional;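 note: value comes from a broad kinase panel profiling study in which PIM2 was one of the panel members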
[11] = molecular target: Calcium/calmodulin-dependent protein kinase type II subunit gamma (Homo sapiens, UniProt Q13555); assay type: functional
[12] = molecular target: Casein kinase I isoform alpha (Homo sapiens, UniProt P48729); assay type: functional
[13] = molecular target: Protein kinase C gamma type (Homo sapiens, UniProt P05129); assay type: functional
[14] = molecular target: Serine/threonine-protein kinase pim-3 (Homo sapiens, UniProt Q86V86); assay type: functional;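 note: value obtained as one member of a broad kinase panel profiling effort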
[15] = molecular target: Proto-oncogene tyrosine-protein kinase Src (Homo sapiens, UniProt P12931); assay type: functional;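 note: SRC entry within a kinome-wide kinase profiling panel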
[16] = molecular target: Tyrosine-protein kinase Fer (Homo sapiens, UniProt P16591); assay type: functional;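 note: FER tested as one member of a kinome panel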
[17] = molecular target: Serine/threonine-protein kinase D2 (Homo sapiens, UniProt Q9BZL6); assay type: functional;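 note: measured against PRKD2 as one member of a kinome-wide kinase profiling panel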
[18] = molecular target: Serine/threonine-protein kinase BRSK1 (Homo sapiens, UniProt Q8TDC3); assay type: functional;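 note: measured within a kinome-wide kinase panel, with the target listed as KIAA1811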
[19] = molecular target: Cyclin-dependent kinase 7 (Homo sapiens, UniProt P50613); assay type: functional;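 note: value comes from a kinome-wide kinase profiling panel in which CDK7 is one member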
[20] = molecular target: Insulin-like growth factor 1 receptor (Homo sapiens, UniProt P08069); experiment: Navigating the Kinome. Panel member name: IGF1R; assay type: functional
[21] = molecular target: Serine/threonine-protein kinase PLK3 (Homo sapiens, UniProt Q9H4B4); assay type: functional
[22] = molecular target: Tyrosine-protein kinase Lck (Homo sapiens, UniProt P06239); assay type: functional;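 note: lck was assayed as one member of a kinase panel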
[23] = molecular target: Vascular endothelial growth factor receptor 2 (Homo sapiens, UniProt P35968); assay type: functional
[24] = molecular target: Serine/threonine-protein kinase Chk2 (Homo sapiens, UniProt O96017); assay type: functional;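 note: CHEK2 entry within a kinome-wide screening panel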
[25] = molecular target: Fibroblast growth factor receptor 3 (Homo sapiens, UniProt P22607); assay type: functional
[26] = molecular target: Serine/threonine-protein kinase 3 (Homo sapiens, UniProt Q13188); assay type: functional;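 note: measured as one member of a kinome-wide kinase panel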
[27] = molecular target: Rho-associated protein kinase 1 (Homo sapiens, UniProt Q13464); assay type: functional;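 note: measured within a broad kinome-wide panel profiling many kinases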
[28] = molecular target: Cell division cycle 7-related protein kinase (Homo sapiens, UniProt O00311); assay type: functional;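 note: value obtained from a kinome-wide kinase panel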
[29] = molecular target: Tyrosine-protein kinase ITK/TSK (Homo sapiens, UniProt Q08881); assay type: functional;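 note: affinity for ITK measured as one member of a broad kinase panel profiling binding across the kinome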
Insulin receptor = Insulin receptor (Homo sapiens, UniProt P06213); assay type: functional;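 note: insulin receptor kinase tested as one member of a kinome-wide kinase panel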
[30] = molecular target: Tyrosine-protein kinase SYK (Homo sapiens, UniProt P43405); assay type: functional
[31] = molecular target: Serine/threonine-protein kinase TAO1 (Homo sapiens, UniProt Q7L7X3); assay type: functional
[32] = molecular target: Serine/threonine-protein kinase pim-1 (Homo sapiens, UniProt P11309); assay type: functional

Sequence of Serine/threonine-protein kinase pim-2 (Q9P1W9 whole entry): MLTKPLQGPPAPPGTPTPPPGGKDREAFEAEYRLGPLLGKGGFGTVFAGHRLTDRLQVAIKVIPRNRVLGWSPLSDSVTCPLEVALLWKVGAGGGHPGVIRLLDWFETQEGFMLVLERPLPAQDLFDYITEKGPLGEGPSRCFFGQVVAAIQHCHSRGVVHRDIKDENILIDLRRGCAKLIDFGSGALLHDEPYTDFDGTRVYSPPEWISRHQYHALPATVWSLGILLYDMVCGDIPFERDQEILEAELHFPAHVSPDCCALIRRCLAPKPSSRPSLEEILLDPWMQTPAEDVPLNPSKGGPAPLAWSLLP
Sequence of Serine/threonine-protein kinase Chk2 (O96017 whole entry): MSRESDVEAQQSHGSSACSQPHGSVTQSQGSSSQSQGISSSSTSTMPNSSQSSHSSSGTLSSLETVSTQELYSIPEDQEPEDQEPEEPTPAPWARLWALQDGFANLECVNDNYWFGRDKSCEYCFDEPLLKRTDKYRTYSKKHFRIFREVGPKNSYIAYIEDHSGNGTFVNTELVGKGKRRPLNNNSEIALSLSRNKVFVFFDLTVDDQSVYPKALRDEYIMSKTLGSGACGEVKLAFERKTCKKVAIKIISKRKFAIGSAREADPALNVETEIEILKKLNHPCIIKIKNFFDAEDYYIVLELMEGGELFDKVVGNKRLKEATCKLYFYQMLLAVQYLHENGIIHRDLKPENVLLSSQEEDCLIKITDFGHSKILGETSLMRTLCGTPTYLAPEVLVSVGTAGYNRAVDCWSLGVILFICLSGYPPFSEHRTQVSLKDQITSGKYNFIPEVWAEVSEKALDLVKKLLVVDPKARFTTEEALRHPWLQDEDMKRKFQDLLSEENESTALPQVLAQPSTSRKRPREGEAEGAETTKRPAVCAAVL
Sequence of Mu-type opioid receptor (P35372 whole entry): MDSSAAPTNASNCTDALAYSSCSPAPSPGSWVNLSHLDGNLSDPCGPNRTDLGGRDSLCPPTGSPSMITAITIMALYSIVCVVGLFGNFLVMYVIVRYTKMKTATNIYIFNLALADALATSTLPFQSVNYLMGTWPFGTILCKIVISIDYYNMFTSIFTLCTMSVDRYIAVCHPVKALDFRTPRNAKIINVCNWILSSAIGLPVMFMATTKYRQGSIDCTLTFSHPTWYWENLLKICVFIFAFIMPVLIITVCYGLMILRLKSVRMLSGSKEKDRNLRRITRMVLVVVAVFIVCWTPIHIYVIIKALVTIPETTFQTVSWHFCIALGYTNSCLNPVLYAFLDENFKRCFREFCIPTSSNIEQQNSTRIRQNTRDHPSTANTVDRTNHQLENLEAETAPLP
Sequence of Tyrosine-protein kinase ITK/TSK (Q08881 whole entry): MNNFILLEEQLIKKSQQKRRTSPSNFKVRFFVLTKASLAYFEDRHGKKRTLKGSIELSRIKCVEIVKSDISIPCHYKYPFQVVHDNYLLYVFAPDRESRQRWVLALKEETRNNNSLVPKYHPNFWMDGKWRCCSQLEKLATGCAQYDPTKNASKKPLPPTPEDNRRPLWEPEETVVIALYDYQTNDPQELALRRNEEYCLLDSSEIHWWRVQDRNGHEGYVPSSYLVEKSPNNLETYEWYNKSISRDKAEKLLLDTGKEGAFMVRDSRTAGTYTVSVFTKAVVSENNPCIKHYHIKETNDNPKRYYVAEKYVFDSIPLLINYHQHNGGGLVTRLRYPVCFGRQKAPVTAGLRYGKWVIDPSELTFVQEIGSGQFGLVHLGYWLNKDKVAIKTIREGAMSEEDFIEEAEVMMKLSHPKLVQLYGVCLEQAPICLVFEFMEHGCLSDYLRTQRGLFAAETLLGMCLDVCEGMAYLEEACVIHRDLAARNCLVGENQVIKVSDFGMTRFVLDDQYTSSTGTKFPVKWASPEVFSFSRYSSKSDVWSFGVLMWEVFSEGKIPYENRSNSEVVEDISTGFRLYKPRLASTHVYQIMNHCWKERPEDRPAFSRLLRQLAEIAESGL
Sequence of Tyrosine-protein kinase Fer (P16591 whole entry): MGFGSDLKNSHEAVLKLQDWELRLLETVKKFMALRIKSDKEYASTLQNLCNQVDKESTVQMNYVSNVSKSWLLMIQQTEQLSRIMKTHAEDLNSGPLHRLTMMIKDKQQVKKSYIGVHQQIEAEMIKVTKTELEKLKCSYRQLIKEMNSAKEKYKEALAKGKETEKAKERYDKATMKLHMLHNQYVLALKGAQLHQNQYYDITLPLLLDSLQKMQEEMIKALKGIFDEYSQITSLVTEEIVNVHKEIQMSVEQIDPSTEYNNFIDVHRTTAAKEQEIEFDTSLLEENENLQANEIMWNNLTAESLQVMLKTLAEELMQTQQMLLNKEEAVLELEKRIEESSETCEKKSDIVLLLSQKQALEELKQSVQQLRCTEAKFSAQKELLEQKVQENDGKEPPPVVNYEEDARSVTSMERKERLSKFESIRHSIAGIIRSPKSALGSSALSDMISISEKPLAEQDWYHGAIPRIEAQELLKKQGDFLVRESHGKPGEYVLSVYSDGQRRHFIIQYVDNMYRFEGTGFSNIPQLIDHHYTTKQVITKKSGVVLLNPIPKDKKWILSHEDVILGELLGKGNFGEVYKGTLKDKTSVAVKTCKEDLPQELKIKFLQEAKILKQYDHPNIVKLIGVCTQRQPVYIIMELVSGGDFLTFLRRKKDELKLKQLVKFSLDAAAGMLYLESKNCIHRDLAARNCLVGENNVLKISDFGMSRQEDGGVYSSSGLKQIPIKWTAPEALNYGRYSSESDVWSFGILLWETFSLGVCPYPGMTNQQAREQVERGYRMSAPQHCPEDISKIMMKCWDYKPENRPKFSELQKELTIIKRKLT
Sequence of Serine/threonine-protein kinase TAO1 (Q7L7X3 whole entry): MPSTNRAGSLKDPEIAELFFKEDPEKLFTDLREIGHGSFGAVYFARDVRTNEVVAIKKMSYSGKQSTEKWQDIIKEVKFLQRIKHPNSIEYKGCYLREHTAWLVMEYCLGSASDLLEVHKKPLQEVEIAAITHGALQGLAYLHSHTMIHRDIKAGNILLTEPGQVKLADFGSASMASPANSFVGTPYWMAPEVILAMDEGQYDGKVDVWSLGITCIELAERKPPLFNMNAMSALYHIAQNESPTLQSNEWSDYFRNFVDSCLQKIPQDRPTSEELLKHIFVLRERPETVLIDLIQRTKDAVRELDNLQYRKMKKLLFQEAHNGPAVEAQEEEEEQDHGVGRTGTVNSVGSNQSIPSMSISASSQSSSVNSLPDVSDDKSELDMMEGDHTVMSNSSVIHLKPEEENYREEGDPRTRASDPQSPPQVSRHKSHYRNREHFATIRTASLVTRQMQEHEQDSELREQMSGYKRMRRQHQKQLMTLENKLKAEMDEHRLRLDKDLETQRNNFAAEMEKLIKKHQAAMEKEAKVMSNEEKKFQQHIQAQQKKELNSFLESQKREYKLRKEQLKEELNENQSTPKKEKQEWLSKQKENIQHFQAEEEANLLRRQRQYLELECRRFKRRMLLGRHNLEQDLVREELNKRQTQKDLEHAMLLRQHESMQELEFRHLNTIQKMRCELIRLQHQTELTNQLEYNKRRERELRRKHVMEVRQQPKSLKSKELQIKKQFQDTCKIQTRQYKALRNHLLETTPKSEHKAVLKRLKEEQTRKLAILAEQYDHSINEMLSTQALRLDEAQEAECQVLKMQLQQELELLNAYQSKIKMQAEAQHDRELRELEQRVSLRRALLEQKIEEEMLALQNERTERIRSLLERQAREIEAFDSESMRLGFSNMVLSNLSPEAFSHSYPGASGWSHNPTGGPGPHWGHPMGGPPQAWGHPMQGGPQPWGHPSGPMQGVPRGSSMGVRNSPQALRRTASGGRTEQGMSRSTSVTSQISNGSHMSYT
Sequence of Cyclin-dependent kinase 7 (P50613 whole entry): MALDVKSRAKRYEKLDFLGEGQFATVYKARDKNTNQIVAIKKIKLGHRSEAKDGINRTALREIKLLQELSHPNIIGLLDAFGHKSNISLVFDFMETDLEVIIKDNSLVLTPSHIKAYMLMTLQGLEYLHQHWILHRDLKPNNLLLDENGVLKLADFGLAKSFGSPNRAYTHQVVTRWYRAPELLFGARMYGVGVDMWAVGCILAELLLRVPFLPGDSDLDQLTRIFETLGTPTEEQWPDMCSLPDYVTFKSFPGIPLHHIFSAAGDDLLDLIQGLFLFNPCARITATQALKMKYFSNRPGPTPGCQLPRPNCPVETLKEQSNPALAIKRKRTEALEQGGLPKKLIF
Sequence of Fibroblast growth factor receptor 3 (P22607 whole entry): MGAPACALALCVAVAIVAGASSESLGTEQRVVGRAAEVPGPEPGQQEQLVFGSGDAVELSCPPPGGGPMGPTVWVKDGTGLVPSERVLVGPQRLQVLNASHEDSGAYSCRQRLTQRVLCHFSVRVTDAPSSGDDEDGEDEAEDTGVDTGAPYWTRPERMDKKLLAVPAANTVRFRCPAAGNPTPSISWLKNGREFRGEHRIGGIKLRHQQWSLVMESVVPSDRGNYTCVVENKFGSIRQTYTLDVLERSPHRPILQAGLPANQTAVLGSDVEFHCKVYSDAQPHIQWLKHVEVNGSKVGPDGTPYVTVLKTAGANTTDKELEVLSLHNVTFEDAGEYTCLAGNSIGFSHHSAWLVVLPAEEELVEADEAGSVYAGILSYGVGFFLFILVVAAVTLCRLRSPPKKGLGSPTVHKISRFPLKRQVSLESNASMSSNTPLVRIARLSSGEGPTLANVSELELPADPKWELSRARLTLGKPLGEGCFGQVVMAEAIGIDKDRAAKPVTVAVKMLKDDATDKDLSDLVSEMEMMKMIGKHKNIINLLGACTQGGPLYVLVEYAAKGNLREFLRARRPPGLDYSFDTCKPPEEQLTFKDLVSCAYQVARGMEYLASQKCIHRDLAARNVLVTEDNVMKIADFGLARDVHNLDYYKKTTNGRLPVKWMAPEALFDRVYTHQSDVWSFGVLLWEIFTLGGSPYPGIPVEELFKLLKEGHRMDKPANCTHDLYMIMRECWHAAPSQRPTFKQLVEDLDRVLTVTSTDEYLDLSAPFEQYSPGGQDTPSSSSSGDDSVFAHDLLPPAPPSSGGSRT

## Cc1cnc(NC(=O)c2sc3ccccc3c2Cl)s1
cells
  EC50: > 67.5 µM (inactive)
[1]
  IC50: > 67.5 µM (inactive)

## Cc1ccc(Nc2cc(C)nn2-c2nc(C)cc(O)n2)cc1
[2]
  IC50: 0.546 µM (active)
Wee1-like protein kinase
  EC50: > 1.84 µM (active)
[3]
  IC50: > 32 µM
Mu-type opioid receptor
  EC50: > 32 µM (inactive)
[4]
  EC50: > 32 µM (inactive)

## Cc1ccc(C(=O)c2c(C)oc3c2C(=O)C(=O)c2ccccc2-3)cc1
[5]
  IC50: 2.2 µM (active)

## CN(C)c1ncc(C2=C(Cl)C(=O)C(N3CCCC3)=C(Cl)C2=O)s1
[6]
  EC50: > 79.4 µM (not active)
[7]
  IC50: 30.7 µM (inactive)
[8]
  IC50: > 64 µM (inactive)
[9]
  CC50: 18.7 µM (active)
H4
  EC50: 34.1 µM (active)

## O=C1NC(=S)SC1=C1C(=O)Nc2ccc(Br)cc21
[10]
  Ki: 0.251 µM (active)
[11]
  Ki: 0.501 µM (active)
[12]
  Ki: > 6.31 µM (inactive)
[13]
  Ki: > 7.94 µM (inactive)
[14]
  Ki: 0.0501 µM (active)
[15]
  Ki: > 2 µM (inactive)
[16]
  Ki: > 1.58 µM (inactive)
[17]
  Ki: 3.16 µM (active)
[18]
  Ki: > 10 µM (inactive)
[19]
  Ki: > 1.58 µM (inactive)
[20]
  Ki: > 2 µM (inactive)
[21]
  Ki: 3.16 µM (active)
[22]
  Ki: > 2.51 µM (inactive)
[23]
  Ki: > 7.94 µM (inactive)
[24]
  Ki: 1.26 µM (active)
[25]
  Ki: > 2 µM (inactive)
[26]
  Ki: 2 µM (active)
[27]
  Ki: 5.01 µM (active)
[28]
  Ki: > 1.26 µM (inactive)
[29]
  Ki: > 1.58 µM (inactive)
Insulin receptor
  Ki: > 5.01 µM (inactive)
[30]
  Ki: 0.794 µM (active)
[31]
  Ki: 5.01 µM (active)
[32]
  Ki: 0.0631 µM (active)
